In patent US7803801B2, “Aminopyridine compounds having Syk inhibitory activity” (Japan Tobacco, Inc., priority 2005, dated 2010):
Structures can show the parent of a compound that is named as a salt. Where two headings read alike, the source gives them in different places.

Columns and labels:
[1] = target: GST-Syk Full Protein (human) (Homo sapiens, UniProt P43405); assay: Syk kinase inhibition test (HTRF method); type: biochemical
How it was run: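 Human GST-Syk full-length (6.4 nM) phosphorylated biotin-EDPDYEWPSA-NH2 (250 nM) with 100 μM ATP in HEPES pH 7.0/MgCl2 buffer, 2% DMSO, 30 min at room temperature. EDTA stop, then HTRF detection (streptavidin-XL665, Eu anti-phosphotyrosine) after 1 h; 665/620 ratio read.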

[2] = test system: cultured human mast cells; assay: Degranulation inhibition test using cultured human mast cells (IgE cross-linking, β-Hexosaminidase release); type: cell-based; conditions: Mast cell, cultured human mast cells, read-out: human degranulation ave. IC50
How it was run: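 CD34+ cord-blood cells cultured ≥8 weeks with SCF/IL-6/IL-3; FcεRI primed 5 days with rhIL-4 (1 ng/mL) and hIgE (0.5 μg/mL). Compound (0.1% DMSO) preincubated 10 min at 37 °C, then anti-IgE (final 10 μg/mL) 30 min; released β-hexosaminidase read at 405 nm versus total lysate, IC50 (M).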

[3] = Tables 2-x, thiophene compounds B, read-out: sykHTRK ave IC50
[4] = Tables 2-x, thiophene compounds B
[5] = HTRF, 100 μM ATP, 30 min room temperature, average, read-out: sykHTRF ave IC50
[6] = anti-hIgE stimulation, β-Hexosaminidase index, average
[7] = Tables 1-x, compounds A, read-out: sykHTRF ave IC50

| Structure (SMILES) | IC50 [1, 5] | IC50 [2, 6] | other results |
| --- | --- | --- | --- |
| Cc1ccnc(Nc2cccc(-c3ccc(C(=O)NCCN)s3)n2)c1 [Compound B-43, N-(2-aminoethyl)-5-[6-(4-methylpyridin-2-ylamino)pyridin-2-yl]thiophene-2-carboxamide] |  |  | IC50 [1, 3]: < 100 nM; IC50 [2, 4]: > 1000 nM |
| Cc1ccnc(Nc2cccc(-c3ccc(C)s3)n2)c1 [Compound B-13] |  |  | IC50 [1, 3]: 100 to 1000 nM; IC50 [2, 4]: > 1000 nM |
| Cc1ccnc(Nc2cccc(-c3cnc([C@H]4CC[C@H](C(=O)N[C@@H](CO)Cc5cnc[nH]5)CC4)s3)n2)c1 [Compound A-303, N—[(R)-2-hydroxy-1-(3H-imidazol-4-ylmethyl)ethyl]-trans-4-{5-[6-(4-methylpyridin-2-ylamino)pyridin-2-yl]thiazol-2-yl}cyclohexanecarboxamide] | < 100 nM | > 1000 nM |  |
| Cc1ccnc(Nc2cccc(-c3cnc(CC4CCC(C(=O)O)CC4)s3)n2)c1 (stereo not shown) [Compound A-249] | 100 to 1000 nM | 100 to 1000 nM |  |
| CC(=O)N(C)[C@H](c1ccc(O)cc1)c1ncc(-c2cccc(Nc3cc(C)ccn3)n2)s1 [Compound A-372, N—((R)-(4-hydroxyphenyl)-{5-[6-(4-methylpyridin-2-ylamino)pyridin-2-yl]thiazol-2-yl}methyl)-N-methylacetamide] | < 100 nM | 100 to 1000 nM |  |
| CC1(c2ccnc(Nc3cccc(-c4cnc(N5CCC[C@@H](C(N)=O)C5)s4)n3)c2)OCCO1 [Compound A-565, (R)-1-(5-{6-[4-(2-methyl-[1,3]dioxolan-2-yl)pyridin-2-ylamino]pyridin-2-yl}thiazol-2-yl)piperidine-3-carboxamide] |  |  | IC50 [1, 7]: < 100 nM; IC50 ([2]; Tables 1-x, compounds A): 100 to 1000 nM |
| Cc1ccnc(Nc2cccc(-c3cnc(CN(C)C(=O)N(C)C)s3)n2)c1 [Compound A-357] | 100 to 1000 nM | > 1000 nM |  |
| Cc1ccnc(Nc2cccc(-c3cnc([C@H]4CC[C@H](C(=O)N5CCC[C@H]5CO)CC4)s3)n2)c1 [Compound A-285] | 100 to 1000 nM | 100 to 1000 nM |  |
| Cc1ccnc(Nc2cccc(-c3sc([C@H](C)N)nc3C)n2)c1 [Compound A-104] | 100 to 1000 nM | > 1000 nM |  |
| CC(=O)N[C@H](c1ncc(-c2cccc(Nc3cc(C)ccn3)n2)s1)C(C)C [Compound A-38] | 100 to 1000 nM | 100 to 1000 nM |  |
| CC(=O)c1csc(-c2cccc(Nc3cc(C)ccn3)n2)c1 [Compound B-68] |  |  | IC50 [1, 3]: 100 to 1000 nM; IC50 [2, 4]: > 1000 nM |
| Cc1ccnc(Nc2cccc(-c3cnc(N4CC[C@@H](NC(=O)CO)C4)s3)n2)c1 [Compound A-475, 2-hydroxy-N—((R)-1-{5-[6-(4-methylpyridin-2-ylamino)pyridin-2-yl]thiazol-2-yl}pyrrolidin-3-yl)acetamide] |  |  | IC50 [1, 7]: < 100 nM; IC50 ([2]; Tables 1-x, compounds A): 100 to 1000 nM |
| Cc1ccnc(Nc2cccc(-c3cnc(CNc4ccc(CC(=O)N5CCC(O)CC5)cc4)s3)n2)c1 [Compound A-278] | 100 to 1000 nM | > 1000 nM |  |
| CC(=O)N1CCN(c2ncc(-c3cccc(Nc4cc(C)ccn4)n3)s2)CC1 [Compound A-419, 1-(4-{5-[6-(4-methylpyridin-2-ylamino)pyridin-2-yl]thiazol-2-yl}piperazin-1-yl)ethanone] |  |  | IC50 [1, 7]: < 100 nM; IC50 ([2]; Tables 1-x, compounds A): 100 to 1000 nM |
| CC(=O)NC[C@H]1CC[C@H](c2ncc(-c3cccc(Nc4cc(C)ccn4)n3)s2)CC1 [Compound A-228, N-(trans-4-{5-[6-(4-methylpyridin-2-ylamino)pyridin-2-yl]thiazol-2-yl}cyclohexylmethyl)acetamide] | < 100 nM | 100 to 1000 nM |  |
| Cc1ccnc(Nc2cccc(-c3ccc(C(O)C(C)C)s3)n2)c1 (stereo not shown) [Compound B-45] |  |  | IC50 [1, 3]: 100 to 1000 nM; IC50 [2, 4]: > 1000 nM |
| CCOC(=O)CC(C)(C)c1ncc(-c2cccc(Nc3cc(C)ccn3)n2)s1 [Compound A-144] | > 1000 nM | > 1000 nM |  |
| COc1ccnc(Nc2cccc(-c3cnc([C@@H]4CCC(=O)N4)s3)n2)c1 [Compound A-319, (S)-5-{5-[6-(4-methoxypyridin-2-ylamino)pyridin-2-yl]thiazol-2-yl}pyrrolidin-2-one] | < 100 nM | 100 to 1000 nM |  |
| Cc1ccnc(Nc2cccc(-c3cnc(CNCCO)s3)n2)c1 [Compound A-216] | 100 to 1000 nM | > 1000 nM |  |
| Cc1ccnc(Nc2cccc(-c3cnc(N4CCc5cc(C(=O)O)ccc5C4)s3)n2)c1 [Compound A-607, 2-{5-[6-(4-methylpyridin-2-ylamino)pyridin-2-yl]thiazol-2-yl}-1,2,3,4-tetrahydroisoquinoline-6-carboxylic acid] |  |  | IC50 [1, 7]: < 100 nM; IC50 ([2]; Tables 1-x, compounds A): 100 to 1000 nM |
| Cc1ccnc(Nc2cccc(-c3cnc(CC(C)(C)NS(C)(=O)=O)s3)n2)c1 [Compound A-337, N-(1,1-dimethyl-2-{5-[6-(4-methylpyridin-2-ylamino)pyridin-2-yl]-thiazol-2-yl}ethyl)methanesulfonamide] | < 100 nM | < 100 nM |  |

| Structure (SMILES) | IC50 [1, 5] | IC50 [2, 6] | other results |
| --- | --- | --- | --- |
| Cc1ccnc(Nc2cccc(-c3cnc(C4CCN(C(=O)c5ccncc5)CC4)s3)n2)c1 [Compound A-306] | 100 to 1000 nM | 100 to 1000 nM |  |
| Cc1ccnc(Nc2cccc(-c3cnc([C@@H]4CCCN4)s3)n2)c1 [Compound A-42] | 100 to 1000 nM | > 1000 nM |  |
| O=C([C@H]1CC[C@H](c2ncc(-c3cccc(Nc4cc(Cl)ccn4)n3)s2)CC1)N1CCC(O)CC1 [Compound A-297, (trans-4-{5-[6-(4-chloropyridin-2-ylamino)pyridin-2-yl]thiazol-2-yl}cyclohexyl)-(4-hydroxypiperidin-1-yl)metanone] | < 100 nM | 100 to 1000 nM |  |
| Cc1ccnc(Nc2cccc(-c3cnc(CN4CCN(CCO)CC4)s3)n2)c1 [Compound A-217] | 100 to 1000 nM | > 1000 nM |  |
| Cc1ccnc(Nc2cccc(-c3cnc(CNS(C)(=O)=O)s3)n2)c1 [Compound A-200, N-{5-[6-(4-methylpyridin-2-ylamino)pyridin-2-yl]thiazol-2-ylmethyl}methanesulfonamide] | < 100 nM | 100 to 1000 nM |  |
| CC(=O)N(CCC(=O)O)Cc1ncc(-c2cccc(Nc3cc(C)ccn3)n2)s1 [Compound A-181] | 100 to 1000 nM | > 1000 nM |  |
| Cc1ccnc(Nc2cccc(-c3cnc(CCCCC(=O)O)s3)n2)c1 [Compound A-69, 5-{5-[6-(4-methylpyridin-2-ylamino)pyridin-2-yl]thiazol-2-yl}pentanoic acid] | < 100 nM | > 1000 nM |  |
| CC(=O)Nc1nc(C)c(-c2cccc(Nc3cc(C)ccn3)n2)s1 [Compound A-20, N-{4-methyl-5-[6-(4-methylpyridin-2-ylamino)pyridin-2-yl]thiazol-2-yl}acetamide] | < 100 nM | 100 to 1000 nM |  |
| Cc1ccnc(Nc2cccc(-c3cnc(CNC(=O)c4cc(C)on4)s3)n2)c1 [Compound A-395] |  |  | IC50 [1, 7]: 100 to 1000 nM; IC50 ([2]; Tables 1-x, compounds A): > 1000 nM |
| Cc1ccnc(Nc2cccc(-c3cnc(CN4C[C@@H](O)[C@@H](O)C4)s3)n2)c1 [Compound A-381] |  |  | IC50 [1, 7]: 100 to 1000 nM; IC50 ([2]; Tables 1-x, compounds A): 100 to 1000 nM |
| COC1CCN(C(=O)[C@H]2CC[C@H](c3ncc(-c4cccc(Nc5cc(C)ccn5)n4)s3)CC2)CC1 [Compound A-280] | 100 to 1000 nM | 100 to 1000 nM |  |
| CC(=O)NCCN(C)c1ncc(-c2cccc(Nc3cc(C)ccn3)n2)s1 [Compound A-508, N-[2-(N′-methyl-N′-{5-[6-(4-methylpyridin-2-ylamino)pyridin-2-yl]thiazol-2-yl}amino)ethyl]acetamide] |  |  | IC50 [1, 7]: < 100 nM; IC50 ([2]; Tables 1-x, compounds A): 100 to 1000 nM |
| Cc1ccnc(Nc2cccc(-c3cnc(CCC4CCC(C(=O)O)CC4)s3)n2)c1 (stereo not shown) [Compound A-612, 4-(2-{5-[6-(4-methylpyridin-2-ylamino)pyridin-2-yl]thiazol-2-yl}ethyl)cyclohexanecarboxylic acid] |  |  | IC50 [1, 7]: < 100 nM; IC50 ([2]; Tables 1-x, compounds A): > 1000 nM |
| Cc1ccnc(Nc2cccc(-c3cnc(CNC[C@H]4CC[C@H](C(=O)O)CC4)s3)n2)c1 [Compound A-207] | 100 to 1000 nM | > 1000 nM |  |
| Cc1ccnc(Nc2cccc(-c3cnc(N4CCC(C)(C(=O)O)CC4)s3)n2)c1 [Compound A-540, 4-methyl-1-{5-[6-(4-methylpyridin-2-ylamino)pyridin-2-yl]thiazol-2-yl}piperidine-4-carboxylic acid] |  |  | IC50 [1, 7]: < 100 nM; IC50 ([2]; Tables 1-x, compounds A): 100 to 1000 nM |
| Cc1ccnc(Nc2cccc(-c3cnc([C@H](C)OC(=O)N(C)C)s3)n2)c1 [Compound A-345, dimethylcarbamic acid(S)-1-{5-[6-(4-methylpyridin-2-ylamino)pyridin-2-yl]thiazol-2-yl}ethyl ester] | < 100 nM | 100 to 1000 nM |  |
| CC(=O)N[C@@H](C)c1ncc(-c2cccc(Nc3cc(C)ccn3)n2)s1 [Compound A-10, N—((S)-1-{5-[6-(4-methylpyridin-2-ylamino)pyridin-2-yl]thiazol-2-yl}ethyl)acetamide] | 100 to 1000 nM | 100 to 1000 nM |  |
| Cc1ccnc(Nc2cccc(-c3ccc(C(=O)CCO)s3)n2)c1 [Compound B-57] |  |  | IC50 [1, 3]: 100 to 1000 nM; IC50 [2, 4]: 100 to 1000 nM |
| Cc1ccnc(Nc2cccc(-c3cnc(N4CC[C@@H](OCC(=O)O)C4)s3)n2)c1 [Compound A-575, ((R)-1-{5-[6-(4-methylpyridin-2-ylamino)pyridin-2-yl]thiazol-2-yl}pyrrolidin-3-yloxy)acetic acid dihydrochloride] |  |  | IC50 [1, 7]: < 100 nM; IC50 ([2]; Tables 1-x, compounds A): > 1000 nM |
| Cc1ccnc(Nc2cccc(-c3cnc(CN4CCC(O)CC4)s3)n2)c1 [Compound A-152, 1-{5-[6-(4-methylpyridin-2-ylamino)pyridin-2-yl]thiazol-2-ylmethyl}piperidin-4-ol] | < 100 nM | 100 to 1000 nM |  |
